We go through 16 compounds from patent US7572797B2, “Amino substituted pyrazine derivatives for the treatment of pain” (Pfizer Inc., priority 2005, dated 2009).

Some results are limits rather than exact numbers.

The target in one assay is T1, Human Nav1.8 (Homo sapiens, UniProt Q9Y5Y9).
T1 construct: expressed in transfected cells
As to the kind of experiment: VIPR assay for Nav1.8 (FRET membrane potential, deltamethrin as opener). The class given is cell-based. The settings on record: automated dissolution procedure; for IC50: HEK293 cells expressing human Nav1.8, average of replicates; for Selectivity Ratio: TTX-S IC50 / NaV1.8 IC50.

The test system of assay [1] is tetrodotoxin-sensitive voltage-gated sodium channels including NaV1.2, NaV1.3 and NaV1.7 (SHSY-5Y cell line). The assay is described as follows: TTX-S assay in SHSY-5Y cell line (VIPR procedure, veratridine as opener). The class given is cell-based. The settings on record: read-out: TTX-S IC50; SHSY-5Y cells; veratridine 50 μM; automated dissolution procedure; average of replicates.

T1 sequence (Q9Y5Y9 whole entry): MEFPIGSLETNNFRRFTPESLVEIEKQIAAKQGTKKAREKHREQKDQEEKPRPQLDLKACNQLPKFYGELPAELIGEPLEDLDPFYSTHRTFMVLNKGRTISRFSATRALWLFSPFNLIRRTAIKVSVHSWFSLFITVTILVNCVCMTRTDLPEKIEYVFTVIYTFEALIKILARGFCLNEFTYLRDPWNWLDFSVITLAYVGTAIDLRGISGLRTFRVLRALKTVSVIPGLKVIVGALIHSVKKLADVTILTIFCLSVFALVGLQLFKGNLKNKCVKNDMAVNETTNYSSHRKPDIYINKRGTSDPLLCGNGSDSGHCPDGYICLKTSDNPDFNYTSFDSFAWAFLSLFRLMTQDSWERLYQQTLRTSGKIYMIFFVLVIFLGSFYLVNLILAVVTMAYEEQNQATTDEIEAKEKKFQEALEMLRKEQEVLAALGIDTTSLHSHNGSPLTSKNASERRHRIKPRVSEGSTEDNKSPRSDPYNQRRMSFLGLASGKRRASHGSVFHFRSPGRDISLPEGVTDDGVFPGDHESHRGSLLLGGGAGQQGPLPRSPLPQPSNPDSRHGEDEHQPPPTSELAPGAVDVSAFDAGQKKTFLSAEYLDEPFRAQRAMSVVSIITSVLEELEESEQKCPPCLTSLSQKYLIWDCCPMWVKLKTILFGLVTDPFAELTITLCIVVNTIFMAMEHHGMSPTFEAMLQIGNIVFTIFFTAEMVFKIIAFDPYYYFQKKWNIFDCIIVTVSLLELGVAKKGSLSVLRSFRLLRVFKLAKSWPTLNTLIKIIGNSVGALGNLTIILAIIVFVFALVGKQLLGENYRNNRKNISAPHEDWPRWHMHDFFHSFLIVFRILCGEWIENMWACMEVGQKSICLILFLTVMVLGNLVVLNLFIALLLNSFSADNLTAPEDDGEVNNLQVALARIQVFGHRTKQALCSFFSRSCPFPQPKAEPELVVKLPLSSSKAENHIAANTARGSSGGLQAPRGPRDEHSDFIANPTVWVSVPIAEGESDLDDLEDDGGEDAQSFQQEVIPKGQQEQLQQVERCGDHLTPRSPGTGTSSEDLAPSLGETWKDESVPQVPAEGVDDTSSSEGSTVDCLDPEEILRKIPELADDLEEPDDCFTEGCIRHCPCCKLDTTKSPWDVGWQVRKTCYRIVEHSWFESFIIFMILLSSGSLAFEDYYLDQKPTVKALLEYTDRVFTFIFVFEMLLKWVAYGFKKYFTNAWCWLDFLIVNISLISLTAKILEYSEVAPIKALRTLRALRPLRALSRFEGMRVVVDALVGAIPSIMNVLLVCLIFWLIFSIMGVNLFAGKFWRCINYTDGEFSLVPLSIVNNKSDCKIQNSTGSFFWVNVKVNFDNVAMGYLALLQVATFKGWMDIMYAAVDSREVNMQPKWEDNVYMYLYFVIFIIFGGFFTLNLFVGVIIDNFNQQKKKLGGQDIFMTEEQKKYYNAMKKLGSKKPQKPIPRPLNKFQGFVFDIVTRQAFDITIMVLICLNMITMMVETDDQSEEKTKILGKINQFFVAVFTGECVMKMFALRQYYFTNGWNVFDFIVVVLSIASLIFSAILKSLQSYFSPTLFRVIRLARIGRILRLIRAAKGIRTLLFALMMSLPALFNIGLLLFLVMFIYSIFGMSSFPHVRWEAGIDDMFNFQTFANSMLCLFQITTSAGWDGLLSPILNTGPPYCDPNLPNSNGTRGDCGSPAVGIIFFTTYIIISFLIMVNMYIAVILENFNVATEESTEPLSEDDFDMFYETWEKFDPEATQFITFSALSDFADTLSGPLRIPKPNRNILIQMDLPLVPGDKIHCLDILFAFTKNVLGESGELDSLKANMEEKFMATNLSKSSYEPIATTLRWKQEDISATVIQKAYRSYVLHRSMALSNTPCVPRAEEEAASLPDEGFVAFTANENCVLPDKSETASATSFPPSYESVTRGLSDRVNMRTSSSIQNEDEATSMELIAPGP

The IC50 is the concentration needed to halve the response being measured. `CCCc1oncc1C(=O)Nc1cnc(-c2cc(OC)ccc2Cl)c(N)n1` [Example 38, N-[6-amino-5-(2-chloro-5-methoxyphenyl)pyrazin-2-yl]-5-propylisoxazole-4-carboxamide]: the IC50 on Human Nav1.8 is more than 30.2 µM; in assay [1] it was more than 30.4 µM.

On to `Cc1oncc1C(=O)Nc1cnc(-c2cc(Cl)cc3c2OCCO3)c(N)n1` [Example 39, N-[6-amino-5-(7-chloro-2,3-dihydro-1,4-benzodioxin-5-yl)pyrazin-2-yl]-5-methylisoxazole-4-carboxamide], for which, on Human Nav1.8, 5.45 µM corresponded to half-maximal inhibition (IC50) and the “Selectivity Ratio” value is more than 3.25. For the same compound, the IC50 in assay [1] was more than 17.7 µM.

As to `Cc1nonc1C(=O)Nc1cnc(-c2cc(Cl)cc3c2OCCO3)c(N)n1` [Example 41, N-[6-amino-5-(7-chloro-2,3-dihydro-14-benzodioxin-5-yl)pyrazin-2-yl]-4-methyl-1,2,5-oxadiazole-3-carboxamide], at Human Nav1.8, the IC50 is 12.7 µM and the “Selectivity Ratio” value is more than 2.22. The IC50 in assay [1] was more than 28.2 µM.

`Nc1nc(NC(=O)c2ccon2)cnc1-c1cc(Cl)cc2c1OCCO2` [Example 43, N-[6-amino-5-(7-chloro-2,3-dihydro-1,4-benzodioxin-5-yl)pyrazin-2-yl]isoxazole-3-carboxamide]: at Human Nav1.8, the IC50 is more than 21.1 µM and the “Selectivity Ratio” value is listed as “->1.43”. The half-inhibitory concentration (IC50) in assay [1] was more than 30.1 µM.

For the compound `Cc1nonc1C(=O)Nc1cnc(-c2cccc3ccccc23)c(N)n1` [Example 44, N-[6-amino-5-(1-naphthyl)pyrazin-2-yl]-4-methyl-1,2,5-oxadiazole-3-carboxamide], on Human Nav1.8, the IC50 is 16.5 µM and the “Selectivity Ratio” value was more than 1.67. In addition, the IC50 in assay [1] was more than 27.4 µM.

Regarding `COc1cc(Cl)cc(-c2ncc(NC(=O)c3cnoc3)nc2N)c1Cl` [Example 48, N-[6-amino-5-(2,5-dichloro-3-methoxyphenyl)pyrazin-2-yl]isoxazole-4-carboxamide], at Human Nav1.8, the IC50 was 8.06 µM and the “Selectivity Ratio” value is recorded as more than 3.75. Besides, in assay [1], the IC50 is more than 30.2 µM.

Consider `COc1cc(Cl)cc(-c2ncc(NC(=O)c3conc3C)nc2N)c1Cl` [Example 49, N-[6-Amino-5-(2,5-dichloro-3-methoxyphenyl)pyrazin-2-y]-3-methylisoxazole-4-carboxamide], for which, at Human Nav1.8, the IC50 was determined as 0.629 µM and the “Selectivity Ratio” value was more than 21.6. Moreover, in assay [1], the IC50 is more than 13.6 µM.

Take `Cc1oncc1C(=O)Nc1cnc(-c2ccccc2Cl)c(N)n1` [Example 50, N-[6-amino-5-(2-chlorophenyl)pyrazin-2-yl]-5-methylisoxazole-4-carboxamide]: at Human Nav1.8, the IC50 was 10.3 µM and the “Selectivity Ratio” value is listed as more than 2.90. Further, the IC50 in assay [1] was more than 29.9 µM.

As to `CC(C)c1oncc1C(=O)Nc1cnc(-c2ccccc2Cl)c(N)n1` [Example 51, N-[6-amino-5-(2-chlorophenyl)pyrazin-2-yl]-5-isopropylisoxazole-4-carboxamide], at Human Nav1.8, the IC50 stood at 0.964 µM and the “Selectivity Ratio” value is recorded as more than 21.89. In addition, in assay [1], the IC50 was more than 21.1 µM.

Turning to `Cc1nonc1C(=O)Nc1cnc(-c2ccccc2Cl)c(N)n1` [Example 55, N-[6-amino-5-(2-chlorophenyl)pyrazin-2-yl]-4-methyl-1,2,5-oxadiazole-3-carboxamide], on Human Nav1.8, the IC50 is more than 21.5 µM and the “Selectivity Ratio” value is “->1.40”. In addition, the IC50 in assay [1] was more than 30.2 µM.

Regarding `COCCn1nccc1C(=O)Nc1cnc(-c2ccccc2Cl)c(N)n1` [Example 56, N-[6-amino-5-(2-chlorophenyl)pyrazin-2-yl]-1-(2-methoxyethyl)-1H-pyrazole-5-carboxamide], the results for the IC50 (on Human Nav1.8; in assay [1]) were more than 26.7 µM and more than 30.2 µM, respectively.

As to `Cn1nccc1C(=O)Nc1cnc(-c2ccccc2Cl)c(N)n1` [Example 57, N-[6-amino-5-(2-chlorophenyl)pyrazin-2-yl]-1-methyl-1H-pyrazole-5-carboxamide], the figures for the IC50 (at Human Nav1.8; in assay [1]) were more than 28.4 µM and more than 30.2 µM, respectively.

As to `COCCn1nccc1C(=O)Nc1cnc(-c2cccc(Cl)c2Cl)c(N)n1` [Example 58, N-[6-amino-5-(2,3-dichlorophenyl)pyrazin-2-yl]-1-(2-methoxyethyl)-1H-pyrazole-5-carboxamide], at Human Nav1.8, the IC50 worked out at 9.42 µM and the “Selectivity Ratio” value was more than 3.21. For the same compound, the IC50 in assay [1] is more than 30.2 µM.

Turning to `Cc1nonc1C(=O)Nc1cnc(-c2cccc(Cl)c2Cl)c(N)n1` [Example 59, N-[6-amino-5-(2,3-dichlorophenyl)pyrazin-2-yl]-4-methyl-1,2,5-oxadiazole-3-carboxamide], on Human Nav1.8, the IC50 turned out to be 7.23 µM and the “Selectivity Ratio” value was more than 3.58. The IC50 in assay [1] is more than 25.9 µM.

In the case of `Nc1nc(NC(=O)c2cnoc2)cnc1-c1cccc(Cl)c1Cl` [Example 60, N-[6-amino-5-(2,3-dichlorophenyl)pyrazin-2-yl]isoxazole-4-carboxamide], on Human Nav1.8, the IC50 is 7.19 µM and the “Selectivity Ratio” value is reported as more than 4.20. The IC50 in assay [1] was more than 30.2 µM.

With `Nc1nc(NC(=O)c2ccn[nH]2)cnc1-c1cc(Cl)ccc1Cl` [Example 62, N-[6-amino-5-(2,5-dichlorophenyl)pyrazin-2-yl]-1H-pyrazole-5-carboxamide], the IC50 (on Human Nav1.8; in assay [1]) was more than 30.2 µM in each case.
